Data: ChEMBL document CHEMBL5724914, “Linking interpersonal differences in gut microbiota composition and drug biotransformation activity” (2024)

Tests used:
[1] = The drug is tested on Z-030 corresponding to mouse gut metagenome with ENA study accession number: PRJEB37062 and ENA sample accession number: ERS12561829 for biotransformation under anaerobic condition. The drug concentrations were measured over 9 timepoints collected between 0 and 24 hours of incubation by liquid-chromatography-coupled mass spectrometry (LC–MS); conditions: 2 µM
[2] = The drug is tested on Z-027 corresponding to metagenome with ENA study accession number: PRJEB37062 and ENA sample accession number: ERS12561826 for biotransformation under anaerobic condition. The drug concentrations were measured over 9 timepoints collected between 0 and 24 hours of incubation by liquid-chromatography-coupled mass spectrometry (LC–MS); conditions: 2 µM
[3] = The drug is tested on Z-022 corresponding to mouse gut metagenome with ENA study accession number: PRJEB37062 and ENA sample accession number: ERS12561821 for biotransformation under anaerobic condition. The drug concentrations were measured over 9 timepoints collected between 0 and 24 hours of incubation by liquid-chromatography-coupled mass spectrometry (LC–MS); conditions: 2 µM
[4] = The drug is tested on Z-020 corresponding to rabbit gut metagenome with ENA study accession number: PRJEB37062 and ENA sample accession number: ERS12561819 for biotransformation under anaerobic condition. The drug concentrations were measured over 9 timepoints collected between 0 and 24 hours of incubation by liquid-chromatography-coupled mass spectrometry (LC–MS); conditions: 2 µM
[5] = The drug is tested on Z-012 corresponding to metagenome with ENA study accession number: PRJEB37062 and ENA sample accession number: ERS12561812 for biotransformation under anaerobic condition. The drug concentrations were measured over 9 timepoints collected between 0 and 24 hours of incubation by liquid-chromatography-coupled mass spectrometry (LC–MS); conditions: 2 µM
[6] = The drug is tested on Z-008 corresponding to metagenome with ENA study accession number: PRJEB37062 and ENA sample accession number: ERS12561808 for biotransformation under anaerobic condition. The drug concentrations were measured over 9 timepoints collected between 0 and 24 hours of incubation by liquid-chromatography-coupled mass spectrometry (LC–MS); conditions: 2 µM
[7] = The drug is tested on Z-001 corresponding to mouse gut metagenome with ENA study accession number: PRJEB37062 and ENA sample accession number: ERS12561801 for biotransformation under anaerobic condition. The drug concentrations were measured over 9 timepoints collected between 0 and 24 hours of incubation by liquid-chromatography-coupled mass spectrometry (LC–MS); conditions: 2 µM
[8] = The drug is tested on WLS-077 corresponding to human gut metagenome with ENA study accession number: PRJEB37062 and ENA sample accession number: ERS12561750 for biotransformation under anaerobic condition. The drug concentrations were measured over 9 timepoints collected between 0 and 24 hours of incubation by liquid-chromatography-coupled mass spectrometry (LC–MS); conditions: 2 µM
[9] = The drug is tested on WLS-027 corresponding to human gut metagenome with ENA study accession number: PRJEB37062 and ENA sample accession number: ERS12561744 for biotransformation under anaerobic condition. The drug concentrations were measured over 9 timepoints collected between 0 and 24 hours of incubation by liquid-chromatography-coupled mass spectrometry (LC–MS); conditions: 2 µM
[10] = human gut metagenome, 24 h, 2 µM
[11] = human gut metagenome, 24 h, 2 µM; remark: listed apart in the source
[12] = human gut metagenome, 24 h, 2 µM; remark: listed apart in the source
[13] = human gut metagenome, 24 h, 2 µM; remark: listed apart in the source
[14] = human gut metagenome, 24 h, 2 µM; remark: listed apart in the source
[15] = human gut metagenome, 24 h, 2 µM; remark: listed apart in the source
[16] = human gut metagenome, 24 h, 2 µM; remark: listed apart in the source
[17] = human gut metagenome, 24 h, 2 µM; remark: listed apart in the source
[18] = human gut metagenome, 24 h, 2 µM; remark: listed apart in the source
[19] = human gut metagenome, 24 h, 2 µM; remark: listed apart in the source
[20] = The drug is tested on Z-005 corresponding to metagenome with ENA study accession number: PRJEB37062 and ENA sample accession number: ERS12561805 for biotransformation under anaerobic condition. The drug concentrations were measured over 9 timepoints collected between 0 and 24 hours of incubation by liquid-chromatography-coupled mass spectrometry (LC–MS); conditions: 2 µM
Also: call rule not given here.

SMILES | Bacterial Biotransformation [1] | Bacterial Biotransformation [2] | Bacterial Biotransformation [3] | Bacterial Biotransformation [4] | Bacterial Biotransformation [5] | Bacterial Biotransformation [6] | Bacterial Biotransformation [7] | Bacterial Biotransformation [8] | Bacterial Biotransformation [9] | Bacterial Biotransformation [10] | Bacterial Biotransformation [11] | Bacterial Biotransformation [12] | Bacterial Biotransformation [13] | Bacterial Biotransformation [14] | Bacterial Biotransformation [15] | Bacterial Biotransformation [16] | Bacterial Biotransformation [17] | Bacterial Biotransformation [18] | Bacterial Biotransformation [19] | Bacterial Biotransformation [20]
O=C1C(CC[S+]([O-])c2ccccc2)C(=O)N(c2ccccc2)N1c1ccccc1 (centres undefined) [SULFINPYRAZONE] | Compound NOT metabolized | Compound NOT metabolized | Compound NOT metabolized | Compound NOT metabolized | Compound NOT metabolized | Compound metabolized | Compound NOT metabolized | Compound metabolized | Compound metabolized | Compound metabolized | Compound metabolized | Compound metabolized | Compound metabolized | Compound metabolized | Compound metabolized | Compound metabolized | Compound metabolized | Compound metabolized | Compound metabolized | 
CN1[C@@H]2CC[C@H]1C[C@@H](OC(=O)[C@H](CO)c1ccccc1)C2 [HYOSCYAMINE] | Compound NOT metabolized | Compound NOT metabolized | Compound NOT metabolized |  | Compound NOT metabolized |  | Compound NOT metabolized |  | Compound NOT metabolized |  |  |  | Compound NOT metabolized | Compound metabolized | Compound NOT metabolized | Compound NOT metabolized | Compound metabolized |  |  | 
CCOC(=O)[C@H](CCc1ccccc1)N[C@@H](C)C(=O)N1CCC[C@H]1C(=O)O.O=C(O)/C=C\C(=O)O [ENALAPRIL MALEATE] | Compound NOT metabolized | Compound NOT metabolized | Compound NOT metabolized |  |  | Compound NOT metabolized | Compound NOT metabolized | Compound NOT metabolized | Compound NOT metabolized | Compound NOT metabolized | Compound NOT metabolized | Compound NOT metabolized | Compound NOT metabolized | Compound NOT metabolized | Compound NOT metabolized | Compound NOT metabolized | Compound NOT metabolized | Compound NOT metabolized | Compound NOT metabolized | Compound NOT metabolized
CSc1ccc2c(c1)C(N1CCN(C)CC1)Cc1ccccc1S2.O=C(O)/C=C\C(=O)O (centres undefined) | Compound NOT metabolized | Compound metabolized | Compound metabolized |  | Compound NOT metabolized | Compound NOT metabolized | Compound metabolized |  | Compound NOT metabolized | Compound NOT metabolized | Compound NOT metabolized | Compound NOT metabolized | Compound NOT metabolized |  | Compound NOT metabolized | Compound NOT metabolized | Compound NOT metabolized | Compound NOT metabolized | Compound NOT metabolized | Compound metabolized
C#C[C@]1(OC(C)=O)CC[C@H]2[C@@H]3CCC4=CC(=O)CC[C@@H]4[C@H]3CC[C@@]21C [NORETHINDRONE ACETATE] | Compound NOT metabolized | Compound metabolized | Compound metabolized | Compound metabolized |  | Compound metabolized | Compound metabolized |  | Compound metabolized |  | Compound metabolized | Compound metabolized | Compound metabolized |  | Compound NOT metabolized |  | Compound metabolized | Compound metabolized | Compound metabolized | Compound metabolized
CC(C)C[C@H]1C(=O)N2CCC[C@H]2[C@]2(O)O[C@](NC(=O)[C@@H]3C=C4c5cccc6[nH]c(Br)c(c56)C[C@H]4N(C)C3)(C(C)C)C(=O)N12.CS(=O)(=O)O [BROMOCRIPTINE MESYLATE] | Compound metabolized | Compound metabolized | Compound metabolized |  | Compound metabolized | Compound metabolized | Compound metabolized | Compound metabolized | Compound metabolized | Compound NOT metabolized | Compound metabolized | Compound metabolized | Compound metabolized | Compound metabolized |  |  | Compound NOT metabolized | Compound NOT metabolized | Compound NOT metabolized | Compound metabolized
CCCCCNC(=N)N/N=C/c1c[nH]c2ccc(OC)cc12.O=C(O)/C=C\C(=O)O [TEGASEROD MALEATE] | Compound NOT metabolized | Compound NOT metabolized | Compound NOT metabolized |  | Compound NOT metabolized | Compound NOT metabolized | Compound NOT metabolized | Compound metabolized | Compound NOT metabolized | Compound NOT metabolized | Compound NOT metabolized | Compound NOT metabolized | Compound NOT metabolized |  |  | Compound NOT metabolized | Compound NOT metabolized | Compound NOT metabolized | Compound NOT metabolized | Compound NOT metabolized
